Assay results from paper PMC7934871 (JCI Insight, 2021).
Non-standard residues stand in square brackets, D forms with d. No end group written: not given here. pY = N[C@@H](Cc1ccc(OP(=O)(O)O)cc1)C(=O)O

Assays:
[1] = biological target: T1, STAT3-exportin 7 interaction (Homo sapiens, UniProt Q9UIA9); assay: Immunoprecipitation from HCT116 tumor homogenates, STAT3-exportin 7 interaction; format: binding; settings: homogenates of HCT116 tumors from treated mice, Western blotting
T1 construct: homogenates prepared from HCT116 colon tumors from mice treated with PO- and PS-acet.-STAT3 peptides; from tissue; host or cells: HCT116 xenograft tumours grown in NSG mice
T1 sequence (Q9UIA9 2-1087 limits assumed): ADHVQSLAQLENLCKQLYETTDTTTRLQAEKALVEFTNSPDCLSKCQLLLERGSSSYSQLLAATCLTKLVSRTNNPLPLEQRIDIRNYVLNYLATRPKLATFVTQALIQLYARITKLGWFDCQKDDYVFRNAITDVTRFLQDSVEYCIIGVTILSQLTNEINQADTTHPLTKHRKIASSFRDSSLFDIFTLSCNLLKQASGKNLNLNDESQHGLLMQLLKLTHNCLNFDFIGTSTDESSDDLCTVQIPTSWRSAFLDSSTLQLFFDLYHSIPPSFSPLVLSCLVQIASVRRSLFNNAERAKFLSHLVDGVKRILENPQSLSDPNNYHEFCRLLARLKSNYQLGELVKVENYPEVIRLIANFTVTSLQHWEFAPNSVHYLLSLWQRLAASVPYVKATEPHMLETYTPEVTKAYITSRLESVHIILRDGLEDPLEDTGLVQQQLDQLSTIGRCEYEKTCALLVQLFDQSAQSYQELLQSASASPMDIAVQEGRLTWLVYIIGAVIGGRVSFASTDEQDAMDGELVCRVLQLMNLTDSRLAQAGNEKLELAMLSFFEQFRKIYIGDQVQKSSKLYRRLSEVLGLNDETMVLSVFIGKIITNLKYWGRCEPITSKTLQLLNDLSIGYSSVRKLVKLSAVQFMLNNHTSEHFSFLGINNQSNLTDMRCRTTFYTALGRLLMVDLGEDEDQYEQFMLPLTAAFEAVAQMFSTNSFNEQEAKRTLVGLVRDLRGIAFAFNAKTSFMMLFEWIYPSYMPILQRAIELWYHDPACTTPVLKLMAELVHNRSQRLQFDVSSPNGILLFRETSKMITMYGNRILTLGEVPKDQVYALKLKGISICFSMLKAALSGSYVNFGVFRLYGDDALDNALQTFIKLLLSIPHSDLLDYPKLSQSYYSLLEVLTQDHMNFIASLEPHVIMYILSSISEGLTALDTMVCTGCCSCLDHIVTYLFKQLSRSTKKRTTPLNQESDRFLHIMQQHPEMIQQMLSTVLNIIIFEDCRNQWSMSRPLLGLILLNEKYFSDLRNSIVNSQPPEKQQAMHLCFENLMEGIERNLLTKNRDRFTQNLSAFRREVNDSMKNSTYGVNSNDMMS
Procedure: (§1) Whole cell lysates or tissue homogenates were prepared by using RIPA lysis buffer (50 mM Tris at pH 7.4, 150 mM NaCl, 1 mM EDTA, 0.5% NP-40, 1 mM NaF, 15% glycerol, and 20 mM β-glycerophosphate). A protease inhibitor cocktail (Mini Protease Inhibitor Cocktail; Roche) and a tyrosine phosphatase inhibitor, sodium orthovanadate (Na3VO4, 1 mM), were added freshly to the lysis buffer. Protein amounts were determined by BCA using a Thermo Fisher Scientific kit. Normalized protein amounts were subjected to an SDS-PAGE and transferred onto a nitrocellulose membrane for Western blotting. Proteins were visualized with a chemiluminescent detection kit (Pierce, Thermo Fisher Scientific). The protein levels for STAT1 (sc-346, E-23), STAT3 (sc-482, C-20), STAT5 (sc-74442, A-9), Crm1 (exportin 1) (sc-5595, H-300), CAS (exportin 2) (sc-271537, H-2), exportin 5 (sc-66885, H-300), and exportin 7 (sc-98639, H-82) were determined using antibodies from Santa Cruz Biotechnology Inc. Anti–exportin 3 (exportin T, 630622, LOS1 05-1525), anti–exportin 4 (3499-1), and anti–exportin 6 (11408-1-AP) were from MilliporeSigma, Epitomics, and Proteintech, respectively. […]
(B) PS-acet.-STAT3 peptide downregulates STAT3 phosphorylation, assessed by Western blotting using tumor homogenates prepared from tumors shown in A. […]

exportins 1–6 = assay: Immunoprecipitation of FAM-labeled peptide and Western blotting, exportins 1–6; format: binding, human; settings: anti-FITC (FAM) immunoprecipitation, Western blotting, U251 cells
Procedure: Data are representative of 3 independent experiments (n = 3).
as §1

KPC mouse PDAC cells = assay: KPC mouse PDAC tumor model in C57BL/6 mice; format: in vivo; settings: KPC s.c. in C57BL/6 mice, i.v. 1 mg/kg every other day for 18 days (combination 0.5 mg/kg each), n = 5
Procedure: SD is shown. […] SD is shown.
Mouse care and experimental procedures were performed under pathogen-free conditions in accordance with established institutional guidance and approved IACUC protocols from Research Animal Care Committee of the City of Hope. For s.c. tumor challenge, 5 × 10^6 HCT116 cells were injected into NSG mice from The Jackson Laboratory or animal resource core facility at the City of Hope. After tumors reached an average size of 80~100 mm^3, mice were locally or intravenously treated with 1 mg/kg of PO- or PS-peptides (Anaspec) every day or every other day. Control animals were treated with the equal volume of HBSS (Invitrogen, Thermo Fisher Scientific). Tumor growth was measured by a digital caliper every other day. To study the effects of the modified peptides at protein and gene levels, mice were euthanized 4–6 weeks after tumor injection. B16 melanoma lung metastasis was performed by injecting 0.5 × 10^6 B16 cells into bloodstream of C57BL/6 mice (The Jackson Laboratory). One day after tumor challenge, mice were treated intravenously (retro-orbitally) with 1 mg/kg of PO- or PS-acet.-STAT3, PS-unacet.-STAT3, or PS-STAT3-K685R peptides every other day until the endpoint as indicated. […] Lungs were then analyzed for immune responses by immunostaining followed by confocal imaging. […] Tumor growth was measured by a digital caliper every other day. […]

Substance	STAT3 binding to exportin 7 in tumor tissues [1]	binding to exportin 7 in tumor tissues [1]	binding to exportins 1–6 (exportins 1–6)	PDAC tumor growth (KPC mouse PDAC cells)
PDIPKEEAFGK685(Ac)YCRPESQEHPC-linker-T*C*C*A*T*G*A*G*C*T*T*C*C*T*G*A*T*G*C*T [PS-acet.-STAT3 peptide]	blocked	bound	not	–
PS-Gp130: PS-conjugated Gp130 peptide (amino acids 901–910) with phospho-Tyr905 (MPKS[pY]LPQTV; also: phosphorothioate oligonucleotide conjugate; UniProt P40189 901-910, looked up, fragment)	–	–	–	significantly inhibited
